Measurements from US9273017B2, “(Thio)morpholine derivatives as S1P modulators” (ABBVIE BAHAMAS LIMITED, priority 2009, dated 2016).
Structures can show the parent of a compound that is named as a salt.

Assays:
human S1P5 receptor = target: T1, human S1P5 receptor (Homo sapiens, UniProt Q9H228); assay: In vitro functional activity (agonism), CHO-human-S1P5-Aequorin assay; assay type: cell-based; settings: for EC50: read-out: S1P5 pEC50 (converted)
T1 construct: host or cells: CHO (AequoScreen recombinant cell line, co-expressing mitochondrially targeted apo-aequorin)
From the text: In Vitro Functional Activity (Agonism) on Human S1P5 Receptors
(§1) The CHO-human-S1P5-Aeqorin assay was bought from Euroscreen, Brussels (Euroscreen, Technical dossier, Human Lysophospholid S1P5 (Edg8) receptor, DNA clone and CHO AequoScreen™ recombinant cell-line, catalog no: ES-593-A, September 2006). Human-S1P5-Aequorin cells express mitochondrial targeted apo-Aequorin. Cells have to be loaded with coelanterazine, in order to reconstitute active Aequorin. After binding of agonists to the human S1P5 receptor the intracellular calcium concentration increases and binding of calcium to the apo-Aequorin/coelenterazine complex leads to an oxidation reaction of coelenterazine, which results in the production of apo-Aequorin, coelenteramide, CO2 and light (λmax 469 nm). This luminescent response is dependent on the agonist concentration. Luminescence is measured using the MicroBeta Jet (Perkin Elmer). Agonistic effects of compounds are expressed as pEC50. Compounds were tested at a 10 points half log concentration range, and 3 independent experiments were performed in single point's measurements.

human S1P3 receptor = target: T2, human S1P3 receptor (Homo sapiens, UniProt Q99500); assay: In vitro functional activity (agonism), CHO-human-S1P3-Aequorin assay; assay type: cell-based; settings: for EC50: read-out: S1P3 pEC50 (converted)
T2 construct: cell line established at Solvay Pharmaceuticals; host or cells: CHO K1 (CHO/Gα16/AEQ/h-S1P3)
From the text: In Vitro Functional Activity (Agonism) on Human S1P3 Receptors
The CHO-human-S1P3-Aeqorin assay (CHO/Gα16/AEQ/h-S1P3) was established at Solvay Pharmaceuticals. The plasmid DNA coding for the S1P3 receptor (accession number in GenBank NM_005226 was purchased from UMR cDNA resource Centre (Rolla, Mo.). The pcDNA3.1/hS1P3 construct carrying the mitochondrially targeted apo-Aeqorin and Gα16 protein was transfected in CHO K1 cell-line.
as §1, with “Human-S1P3-Aequorin” for “The CHO-human-S1P5-Aeqorin assay was bought from Euroscreen, Brussels (Euroscreen, Technical dossier, Human Lysophospholid S1P5 (Edg8) receptor, DNA clone and CHO AequoScreen™ recombinant cell-line, catalog no: ES-593-A, September 2006). Human-S1P5-Aequorin”, “S1P3” for “S1P5”

human S1P1 = target: T3, human S1P1 (Homo sapiens, UniProt P21453); assay: In vitro functional activity (agonism), CHO-K1-human S1P1 cAMP assay; assay type: cell-based; settings: read-out: S1P1 pEC50 (converted)
T3 construct: host or cells: CHO-K1
Procedure: In Vitro Functional Activity (Agonism) on Human S1P1 Receptors
The CHO-K1-Human S1P1-c-AMP assay was performed at Euroscreenfast, Brussels (Euroscreen, Human S1P1 coupling Gi/o), (Edg1) receptor, catalog no: FAST-0197C, December 2009).
Recombinant CHO-K1 cells expressing human S1P1, grown to mid-log Phase in culture media without antibiotics, detached, centrifuged and re-suspended. For agonist testing cells are mixed with compound and Forskolin and incubated at room temperature. Cells are lyses and cAMP concentration are estimated, according to the manufacturer specification, With the HTRF kit from CIS-BIO International (cat no 62AM2PEB).
Agonistic effects of compounds are expressed as a percentage of the activity of the reference compound at its EC100 concentration, EC50) is calculated and results are reported as pEC50. Compounds were tested at a 10 points half log concentration range duplicated in 1 experiment.

T3 sequence (P21453 whole entry): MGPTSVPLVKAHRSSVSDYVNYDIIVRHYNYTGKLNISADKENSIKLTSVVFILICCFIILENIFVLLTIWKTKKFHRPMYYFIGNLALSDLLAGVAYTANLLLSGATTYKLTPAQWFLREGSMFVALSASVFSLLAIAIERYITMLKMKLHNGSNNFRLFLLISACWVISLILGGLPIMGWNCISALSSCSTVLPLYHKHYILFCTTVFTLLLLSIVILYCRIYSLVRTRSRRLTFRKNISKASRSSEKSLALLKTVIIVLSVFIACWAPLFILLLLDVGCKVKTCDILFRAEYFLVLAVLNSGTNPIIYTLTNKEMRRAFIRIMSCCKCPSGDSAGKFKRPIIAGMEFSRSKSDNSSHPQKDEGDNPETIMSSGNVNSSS
T1 sequence (Q9H228 whole entry): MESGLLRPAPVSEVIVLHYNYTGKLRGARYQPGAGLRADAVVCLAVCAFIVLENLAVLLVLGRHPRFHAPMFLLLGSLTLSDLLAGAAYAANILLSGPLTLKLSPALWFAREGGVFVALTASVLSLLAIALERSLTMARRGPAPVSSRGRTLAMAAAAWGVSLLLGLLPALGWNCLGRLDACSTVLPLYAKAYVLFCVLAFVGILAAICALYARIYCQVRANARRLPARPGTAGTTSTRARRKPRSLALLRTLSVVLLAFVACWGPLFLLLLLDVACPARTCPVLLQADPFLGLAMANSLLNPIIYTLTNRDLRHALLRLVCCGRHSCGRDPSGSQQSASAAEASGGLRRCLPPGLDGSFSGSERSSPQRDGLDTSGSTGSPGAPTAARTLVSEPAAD
T2 sequence (Q99500 whole entry): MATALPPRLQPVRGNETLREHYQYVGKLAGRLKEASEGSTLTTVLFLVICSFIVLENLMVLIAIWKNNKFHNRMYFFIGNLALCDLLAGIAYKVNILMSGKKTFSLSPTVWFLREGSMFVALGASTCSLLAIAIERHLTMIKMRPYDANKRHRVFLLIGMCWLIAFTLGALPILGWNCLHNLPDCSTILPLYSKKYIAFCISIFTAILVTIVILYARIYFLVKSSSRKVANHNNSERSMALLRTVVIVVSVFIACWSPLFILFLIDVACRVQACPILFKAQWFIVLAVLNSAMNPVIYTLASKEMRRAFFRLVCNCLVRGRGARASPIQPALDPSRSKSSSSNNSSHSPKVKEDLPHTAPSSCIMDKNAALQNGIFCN

| Compound | S1P5 pEC50 (human S1P5 receptor) | S1P3 pEC50 (human S1P3 receptor) | EC50 (human S1P5 receptor) [µM] | EC50 (human S1P3 receptor) [µM] | EC50 (human S1P1) [µM] | melting point [°C] |
| --- | --- | --- | --- | --- | --- | --- |
| 3-{2-[4-(2,6-Dichloro-benzyloxy)-phenyl]-morpholin-4-yl}-2,2-di-fluoro-propionic acid triethylammonium salt [Compound 150] | 6.2 | <5.0 | – | – | – | – |
| O=C(O)CCN1CCOC(c2ccc(OCc3c(Cl)cccc3Cl)cc2)C1 (single isomer, unassigned; (+)) [Compound 34a, (+)-3-{2-[4-(2,6-Dichloro-benzyloxy)-phenyl]-morpholin-4-yl}-propionic acid hydrochloride] | – | – | 0.631 | > 31.6 | – | – |
| CCCc1ncc(OCCCOc2ccc(C3CN(CCC(=O)O)CCO3)cc2)s1 (stereo not drawn) [Compound 3, 3-(2-{4-[3-(2-Propyl-thiazol-5-yloxy)-propoxy]-phenyl}-morpholin-4-yl)-propionic acid trifluoroacetic acid salt] | – | – | 10 | 15.8 | – | – |
| O=C(O)CCN1CCOC(c2ccc(OCCCc3ccccc3)cc2)C1 (stereo not drawn) [Compound 16, 3-{2-[4-(3-Phenyl-propoxy)-phenyl]-morpholin-4-yl}-propionic acid trifluoroacetic acid salt] | – | – | 1 | 3.98 | – | – |
| O=C(O)CCN1CCOC(c2ccc(OCC3CCCCC3)cc2)C1 (stereo not drawn) [Compound 24, 3-[2-(4-Cyclohexylmethoxy-phenyl)-morpholin-4-yl]-propionic acid trifluoroacetic acid salt] | – | – | 0.631 | > 31.6 | – | – |
| CCCCCCCCOc1ccc(C2CN(CCC(=O)O)CCO2)cc1 (stereo not drawn) [Compound 41, 3-(2-(4-Octyloxy-phenyl)-morpholin-4-yl)-propionic acid hydro-chloride] | – | – | 0.251 | 2.51 | > 3.16 | – |
| O=C(O)CCN1CCOC(c2ccc(C(=O)Nc3c(Cl)cccc3Cl)cc2)C1 (stereo not drawn) [Compound 53, 3-{2-[4-(2,6-Dichloro-phenylcarbamoyl)-phenyl]-morpholin-4-yl}-propionic acid hydrochloride] | – | – | 2 | > 10 | – | – |
| COc1cc(C2CN(CCC(=O)O)CCO2)ccc1OCc1ccccc1C(F)(F)F.Cl (stereo not drawn) [Compound 66, 3-{2-[3-Methoxy-4-(2-trifluoromethyl-benzyloxy)-phenyl]-morpholin-4-yl}-propionic acid hydrochloride] | – | – | 0.631 | > 10 | – | 170 to 172 |
| Cc1cc(OCc2ccc3ccccc3c2)ccc1C1CN(CCC(=O)O)CCO1 (stereo not drawn) [Compound 76, 3-{2-[2-Methyl-4-(naphthalen-2-ylmethoxy)-phenyl]-morpholin-4-yl}-propionic acid] | – | – | 2.51 | > 10 | – | – |
| Cc1cc(OCC2CCC3CC2C3(C)C)ccc1C1CN(CCC(=O)O)CCO1 (stereo not drawn) [Compound 84, 3-{2-[4-(6,6-Dimethyl-bicyclo[3.1.1]hept-2-ylmethoxy)-2-methyl-phenyl]-morpholin-4-yl}-propionic acid] | – | – | 3.98 | > 10 | – | – |
| Cc1cc(OCc2cccc(Oc3ccccc3)c2)ccc1C1CN(CCC(=O)O)CCO1 (stereo not drawn) [Compound 92, 3-{2-[2-Methyl-4-(3-phenoxy-benzyloxy)-phenyl]-morpholin-4-yl}-propionic acid] | – | – | 5.01 | > 10 | – | – |
| Cc1cc(OCc2cccc(OCc3ccccc3)c2)ccc1C1CN(CCC(=O)O)CCO1 (stereo not drawn) [Compound 100, 3-{2-[4-(3-Benzyloxy-benzyloxy)-2-methyl-phenyl]-morpholin-4-yl}-propionic acid] | – | – | 3.98 | > 10 | – | – |
| CCCCc1ccc(COc2ccc(C3CN(CCC(=O)O)CCO3)c(C)c2)cc1 (stereo not drawn) [Compound 117, 3-{2-[4-(4-Butyl-benzyloxy)-2-methyl-phenyl]-morpholin-4-yl}-propionic acid] | – | – | 3.98 | > 10 | – | – |
| Cc1cc(OCc2ccc(C(C)(C)C)cc2)ccc1C1CN(CCC(=O)O)CCO1 (stereo not drawn) [Compound 127, 3-{2-[4-(4-tert-Butyl-benzyloxy)-2-methyl-phenyl]-morpholin-4-yl}-propionic acid] | – | – | 0.631 | > 10 | – | – |
| Cc1cc(OCc2c(Cl)cccc2Cl)ccc1C1CN(CCC(=O)O)CCO1 (stereo not drawn) [Compound 130, 3-{2-[4-(2,6-Dichloro-benzyloxy)-2-methyl-phenyl]-morpholin-4-yl}-propionic acid trifluoroacetic acid salt] | – | – | 0.0794 | > 31.6 | > 3.16 | – |
| O=C(O)CCN1CCOC(c2ccc(OCc3c(Cl)cccc3Cl)c(C(F)(F)F)c2)C1 (stereo not drawn) [Compound 131, 3-{2-[4-(2,6-Dichloro-benzyloxy)-3-trifluoromethyl-phenyl]-morpholin-4-yl}-propionic acid trifluoroacetic acid salt] | – | – | 1 | > 10 | – | – |
| CCCCCCCCOc1ccc(C2CN(CCP(=O)(O)O)CCO2)cc1 (stereo not drawn) [Compound 137, {2-[2-(4-Octyloxy-phenyl)-morpholin-4-yl]-ethyl}-phosphonic acid] | – | – | 0.1 | 0.501 | – | – |
| Cc1cc(C2CN(CCC(=O)O)CCO2)ccc1OCc1c(F)cccc1Cl (stereo not drawn) [Compound 144, 3-{2-[4-(2-Chloro-6-fluoro-benzyloxy)-3-methyl-phenyl]-morpholin-4-yl}-propionic acid hydrochloride] | – | – | 0.631 | > 10 | – | – |
| O=C(O)CCN1CCOC(c2ccc(OCc3c(Cl)cccc3C(F)(F)F)cc2)C1 (stereo not drawn) [Compound 153, 3-{2-[4-(2-Chloro-6-trifluoromethyl-benzyloxy)-phenyl]-morpholin-4-yl}-propionic acid hydrochloride] | – | – | 0.1 | > 10 | > 3.16 | – |
| CCc1cc(Cl)c(COc2ccc(C3CN(CCC(=O)O)CCO3)cc2)c(Cl)c1 (stereo not drawn) [Compound 164, 3-{2-[4-(2,6-Dichloro-4-ethyl-benzyloxy)-phenyl]-morpholin-4-yl}-propionic acid hydrochloride] | – | – | 0.316 | 2 | – | – |
| O=C(O)CCN1CCOC(c2ccc(OCCCc3cccc(F)c3F)cc2)C1 (stereo not drawn) [Compound 174, 3-(2-{4-[3-(2,3-Difluoro-phenyl)-propoxy]-phenyl}-morpholin-4-yl)-propionic acid hydrochloride] | – | – | 1.58 | 5.01 | – | – |
| CCCCCCCCOc1ccc(C2CN(CCC(=O)O)C(C)(C)CO2)cc1 (stereo not drawn) [Compound 187, 3-[5,5-Dimethyl-2-(4-octyloxy-phenyl)-morpholin-4-yl]-propionic acid hydrochloride] | – | – | 0.794 | 3.16 | – | – |
| Cc1cccc2c1C(Oc1ccc(C3CN(CCC(=O)O)CCO3)cc1)CC2 (stereo not drawn) [Compound 220, 3-{2-[4-(7-Methyl-indan-1-yloxy)-phenyl]-morpholin-4-yl}-propionic acid] | – | – | 0.158 | 0.251 | – | 134 to 139 |
| Clc1cccc(Cl)c1COc1ccc(C2CN(CCc3nn[nH]n3)CCO2)cc1 (stereo not drawn) [Compound 228, 2-[4-(2,6-Dichloro-benzyloxy)-phenyl]-4-[2-(2H-tetrazol-5-yl)-ethyl]-morpholine hydrochloride] | – | – | 0.158 | > 10 | > 3.16 | – |
| CCCCCCCCOc1cccc(C2CN(CCC(=O)O)CCO2)c1.Cl (stereo not drawn) [Compound 231, 3-[2-(3-Octyloxy-phenyl)-morpholin-4-yl]-propionic acid hydrochloride] | – | – | 0.251 | > 10 | – | 218 to 220 |
